Experimental data: the NIST ThermoML archive (doi:10.1021/je700438d)

Assay: mn = molality of the nth substance listed, in mol/kg
Details: Liquid, Vibrating tube method

[Cl-].[Li+] [lithium chloride] + CCO
Details	mass density [kg/m3]
298.15 K, 120 kPa, m1 = 2.88	865.97
298.15 K, 180 kPa, m1 = 0.3023	795.82
298.15 K, 210 kPa, m1 = 0.1049	789.29
298.15 K, 210 kPa, m1 = 1.222	823.5
298.15 K, 250 kPa, m1 = 0.5873	804.88
298.15 K, 410 kPa, m1 = 2.022	845.2
298.15 K, 5040 kPa, m1 = 0.3023	799.96
298.15 K, 5040 kPa, m1 = 2.88	869.78
298.15 K, 5120 kPa, m1 = 0.1049	793.51
298.15 K, 5230 kPa, m1 = 2.022	849.07
298.15 K, 5470 kPa, m1 = 1.222	827.84
298.15 K, 5520 kPa, m1 = 0.5873	809.31
298.15 K, 9820 kPa, m1 = 1.222	831.28
298.15 K, 10030 kPa, m1 = 0.1049	797.57
298.15 K, 10050 kPa, m1 = 2.022	852.76
298.15 K, 10240 kPa, m1 = 0.3023	804.22
298.15 K, 10320 kPa, m1 = 2.88	873.67
298.15 K, 10440 kPa, m1 = 0.5873	813.28
298.15 K, 14990 kPa, m1 = 1.222	835.2
298.15 K, 15030 kPa, m1 = 2.022	856.4
298.15 K, 15170 kPa, m1 = 0.5873	816.95
298.15 K, 15240 kPa, m1 = 0.1049	801.71
298.15 K, 15620 kPa, m1 = 0.3023	808.44
298.15 K, 15640 kPa, m1 = 2.88	877.37
298.15 K, 19040 kPa, m1 = 1.222	838.14
298.15 K, 19250 kPa, m1 = 0.5873	819.98
298.15 K, 20050 kPa, m1 = 0.3023	811.77
298.15 K, 20060 kPa, m1 = 0.1049	805.39
298.15 K, 20120 kPa, m1 = 2.022	859.94
298.15 K, 20610 kPa, m1 = 2.88	880.65
298.15 K, 25080 kPa, m1 = 2.88	883.43
298.15 K, 25410 kPa, m1 = 0.1049	809.29
298.15 K, 25460 kPa, m1 = 1.222	842.57
298.15 K, 25610 kPa, m1 = 2.022	863.54
298.15 K, 25640 kPa, m1 = 0.5873	824.52
298.15 K, 25840 kPa, m1 = 0.3023	815.92
298.15 K, 30060 kPa, m1 = 0.1049	812.53
298.15 K, 30080 kPa, m1 = 2.022	866.32
298.15 K, 30110 kPa, m1 = 0.5873	827.53
298.15 K, 30190 kPa, m1 = 1.222	845.65
298.15 K, 30410 kPa, m1 = 2.88	886.56
298.15 K, 30560 kPa, m1 = 0.3023	819.15
298.15 K, 35090 kPa, m1 = 2.88	889.13
298.15 K, 35410 kPa, m1 = 2.022	869.43
298.15 K, 35560 kPa, m1 = 0.5873	831.01
298.15 K, 35710 kPa, m1 = 0.1049	816.28
298.15 K, 35840 kPa, m1 = 0.3023	822.58
298.15 K, 35870 kPa, m1 = 1.222	849.13
298.15 K, 39820 kPa, m1 = 0.5873	833.6
298.15 K, 39910 kPa, m1 = 0.3023	825.1
298.15 K, 39940 kPa, m1 = 2.022	871.92
298.15 K, 39980 kPa, m1 = 0.1049	818.97
298.15 K, 39980 kPa, m1 = 2.88	891.64
298.15 K, 40070 kPa, m1 = 1.222	851.57
323.15 K, 120 kPa, m1 = 0.1049	767.47
323.15 K, 140 kPa, m1 = 0.3023	774.35
323.15 K, 180 kPa, m1 = 2.88	845.88
323.15 K, 230 kPa, m1 = 2.022	824.57
323.15 K, 240 kPa, m1 = 0.5873	783.81
323.15 K, 410 kPa, m1 = 1.222	802.86
323.15 K, 5030 kPa, m1 = 0.5873	788.42
323.15 K, 5070 kPa, m1 = 1.222	807.19
323.15 K, 5140 kPa, m1 = 0.1049	772.47
323.15 K, 5210 kPa, m1 = 0.3023	779.31
323.15 K, 5410 kPa, m1 = 2.022	829.25
323.15 K, 5410 kPa, m1 = 2.88	850.34
323.15 K, 10020 kPa, m1 = 0.1049	777.11
323.15 K, 10050 kPa, m1 = 0.5873	793.02
323.15 K, 10080 kPa, m1 = 2.022	833.25
323.15 K, 10080 kPa, m1 = 2.88	854.11
323.15 K, 10200 kPa, m1 = 1.222	811.76
323.15 K, 10230 kPa, m1 = 0.3023	784
323.15 K, 15060 kPa, m1 = 0.3023	788.31
323.15 K, 15230 kPa, m1 = 2.022	837.42
323.15 K, 15240 kPa, m1 = 2.88	858.04
323.15 K, 15290 kPa, m1 = 1.222	816.02
323.15 K, 15320 kPa, m1 = 0.1049	781.93
323.15 K, 15620 kPa, m1 = 0.5873	797.87
323.15 K, 20040 kPa, m1 = 0.1049	786.01
323.15 K, 20060 kPa, m1 = 2.88	861.48
323.15 K, 20150 kPa, m1 = 1.222	819.88
323.15 K, 20410 kPa, m1 = 2.022	841.36
323.15 K, 20450 kPa, m1 = 0.3023	792.88
323.15 K, 20470 kPa, m1 = 0.5873	801.87
323.15 K, 25040 kPa, m1 = 0.3023	796.57
323.15 K, 25060 kPa, m1 = 0.1049	790.15
323.15 K, 25060 kPa, m1 = 1.222	823.57
323.15 K, 25140 kPa, m1 = 0.5873	805.52
323.15 K, 25300 kPa, m1 = 2.88	864.98
323.15 K, 25310 kPa, m1 = 2.022	844.84
323.15 K, 30010 kPa, m1 = 2.022	847.97
323.15 K, 30060 kPa, m1 = 0.3023	800.4
323.15 K, 30060 kPa, m1 = 0.5873	809.15
323.15 K, 30070 kPa, m1 = 2.88	867.94
323.15 K, 30150 kPa, m1 = 0.1049	794.13
323.15 K, 30420 kPa, m1 = 1.222	827.32
323.15 K, 35020 kPa, m1 = 0.3023	803.97
323.15 K, 35210 kPa, m1 = 2.88	870.9
323.15 K, 35220 kPa, m1 = 0.5873	812.74
323.15 K, 35410 kPa, m1 = 1.222	830.59
323.15 K, 35420 kPa, m1 = 2.022	851.3
323.15 K, 35610 kPa, m1 = 0.1049	798.15
323.15 K, 39860 kPa, m1 = 2.88	873.36
323.15 K, 39940 kPa, m1 = 0.1049	801.15
323.15 K, 39960 kPa, m1 = 1.222	833.36
323.15 K, 39970 kPa, m1 = 0.5873	815.82
323.15 K, 39970 kPa, m1 = 2.022	853.89
323.15 K, 39980 kPa, m1 = 0.3023	807.32
348.15 K, 140 kPa, m1 = 0.1049	743.86
348.15 K, 150 kPa, m1 = 2.022	803.25
348.15 K, 170 kPa, m1 = 0.3023	751.06
348.15 K, 420 kPa, m1 = 1.222	780.84
348.15 K, 540 kPa, m1 = 2.88	825.55
348.15 K, 740 kPa, m1 = 0.5873	761.48
348.15 K, 4960 kPa, m1 = 2.022	808.25
348.15 K, 5060 kPa, m1 = 0.3023	756.68
348.15 K, 5060 kPa, m1 = 0.5873	766.32
348.15 K, 5060 kPa, m1 = 1.222	785.85
348.15 K, 5080 kPa, m1 = 0.1049	749.63
348.15 K, 5140 kPa, m1 = 2.88	829.96
348.15 K, 10030 kPa, m1 = 2.022	813.19
348.15 K, 10060 kPa, m1 = 0.1049	755.18
348.15 K, 10070 kPa, m1 = 0.3023	762.15
348.15 K, 10080 kPa, m1 = 2.88	834.46
348.15 K, 10210 kPa, m1 = 1.222	791.09
348.15 K, 10530 kPa, m1 = 0.5873	772.13
348.15 K, 14960 kPa, m1 = 2.022	817.67
348.15 K, 15060 kPa, m1 = 2.88	838.73
348.15 K, 15120 kPa, m1 = 0.3023	767.36
348.15 K, 15280 kPa, m1 = 1.222	795.92
348.15 K, 15290 kPa, m1 = 0.5873	776.89
348.15 K, 15410 kPa, m1 = 0.1049	760.81
348.15 K, 20030 kPa, m1 = 2.022	821.94
348.15 K, 20060 kPa, m1 = 0.1049	765.44
348.15 K, 20070 kPa, m1 = 2.88	842.77
